Tested on: MV4-11 cells
Test: In vitro proliferation (Cell Titer Glo, 6 days) of Compound 51 in combination with gilteritinib, midostaurin or decitabine, MV4-11
Assay type: cell-based
Design: key to Synergy/antagonism call (maxR test), MV4-11 Cell Proliferation: synergy is indicated by “**”; antagonism is indicated by “*”; no asterisk: absence of any asterisk indicates an additive effect
Procedure: 3) In Vitro Proliferation—Menin-MLL Inhibitor in Combination with FLT3 Inhibitor (Gilteritinib or Midostaurin), DNA Intercalating Agent (Idarubicin) or Hypomethylating Agent (Decitabine)
The effect of Compound 51 in combination with gilteritinib, midostaurin, idarubicin or decitabine was determined in proliferation assays.
AML cell lines MOLM-13, OCI-AML3 and MV4-11 were purchased from DSMZ. MOLM-13 were grown in RPMI medium supplemented with 10% Fetal Bovine Serum (FBS) and 1% penicillin/streptomycin. MV4-11 cells were grown in IMDM medium supplemented with 10% FBS and 1% penicillin/streptomycin. OCI-AML3 cells were cultured in 80-90% alpha-MEM (with or without ribo- and deoxyribonucleosides)+10-20% FBS. All cell lines were cultured at 37° C. in 5% CO2 atmosphere.
AML cell lines (10-20×10^3 cells/well) were seeded in 96-well plates and grown for 6 days in serum (10%)-containing medium in the presence or absence of inhibitors at the indicated concentrations. Proliferation was analyzed by means of a Cell Titer Glo assay using the […] (Promega, Madison, WI, USA), according to the manufacturer's instructions. Data are mean with standard deviation from two to four independent experiments in technical triplicates.
R-based Biochemically Intuitive Generalized Loewe (BIGL) model implemented with a highest single agent (HSA) null model. Specifically, the BIGL methodology was applied to calculate drug-drug interactions (Van der Borght, K., Tourny, A., Bagdziunas, R. et al. BIGL: Biochemically Intuitive Generalized Loewe null model for prediction of the expected combined effect compatible with partial agonism and antagonism. Sci Rep 7, 17935 (2017); Thas, O., Tourny, A., Verbist, B., Hawinkel, S., Nazarov, M., Mutambanengwe, K., & Bijnens, L. Statistical detection of synergy: New methods and a comparative study. Pharmaceutical Statistics (2021)).
Synergy matrix results of the BIGL analysis of the cell line data with HSA as mean model calculated on the basis of the cellular metabolic activity using Cell Titer-Glo assay. Bootstrap confidence intervals are indicated. Effect sizes and their confidence intervals are shown. […] No significant average effect if zero is included in the interval.

[1] = Compound 51 0.01 μm + Decitabine 0.0015 μM
[2] = Compound 51 0.01 μm + Decitabine 0.035 μM
[3] = Compound 51 0.01 μm + Decitabine 0.15 μM
[4] = Compound 51 0.01 μm + Gilteritinib 0.0005 μM
[5] = Compound 51 0.05 μm + Decitabine 0.15 μM
[6] = Compound 51 0.05 μm + Decitabine 1.5 μM
[7] = Compound 51 0.05 μm + Gilteritinib 0.0005 μM

CC(=O)N1CCC(CN2CC[C@@H](Cc3cn(-c4ccc(F)cc4C(=O)N(C)C(C)C)c4cncc(C)c34)C2)CC1 [Compound 51]
Effect size (BIGL, HSA null model), MV4-11 Cell Proliferation (Compound 51 0.0001 μm + Midostaurin 0.0012 μM): −0.03 | Effect size (BIGL, HSA null model), MV4-11 Cell Proliferation (Compound 51 0.0001 μm + Midostaurin 0.006 μM): 0.13 | Effect size (BIGL, HSA null model), MV4-11 Cell Proliferation (Compound 51 0.0001 μm + Midostaurin 0.025 μM): 0.02 | Effect size (BIGL, HSA null model), MV4-11 Cell Proliferation (Compound 51 0.0001 μm + Midostaurin 0.05 μM): −0.05 | Effect size (BIGL, HSA null model), MV4-11 Cell Proliferation (Compound 51 0.0001 μm + Midostaurin 0.1 μM): −0.02 | Effect size (BIGL, HSA null model), MV4-11 Cell Proliferation (Compound 51 0.0001 μm + Midostaurin 0.5 μM): 0.03 | Effect size (BIGL, HSA null model), MV4-11 Cell Proliferation (Compound 51 0.001 μm + Decitabine 0.0015 μM): −0.01 | Effect size (BIGL, HSA null model), MV4-11 Cell Proliferation (Compound 51 0.001 μm + Decitabine 0.035 μM): −0.03 | Effect size (BIGL, HSA null model), MV4-11 Cell Proliferation (Compound 51 0.001 μm + Decitabine 0.15 μM): 0 | Effect size (BIGL, HSA null model), MV4-11 Cell Proliferation (Compound 51 0.001 μm + Decitabine 1.5 μM): −0.05 | Effect size (BIGL, HSA null model), MV4-11 Cell Proliferation (Compound 51 0.001 μm + Decitabine 3 μM): −0.04 | Effect size (BIGL, HSA null model), MV4-11 Cell Proliferation (Compound 51 0.001 μm + Gilteritinib 0.0005 μM): −0.03 | Effect size (BIGL, HSA null model), MV4-11 Cell Proliferation (Compound 51 0.001 μm + Gilteritinib 0.005 μM): −0.01 | Effect size (BIGL, HSA null model), MV4-11 Cell Proliferation (Compound 51 0.001 μm + Gilteritinib 0.01 μM): −0.03 | Effect size (BIGL, HSA null model), MV4-11 Cell Proliferation (Compound 51 0.001 μm + Gilteritinib 0.05 μM): −0.01 | Effect size (BIGL, HSA null model), MV4-11 Cell Proliferation (Compound 51 0.001 μm + Gilteritinib 0.3 μM): −0.01 | Effect size (BIGL, HSA null model), MV4-11 Cell Proliferation (Compound 51 0.001 μm + Gilteritinib 1 μM): −0.01 | Effect size (BIGL, HSA null model), MV4-11 Cell Proliferation (Compound 51 0.001 μm + Midostaurin 0.0012 μM): −0.02 | Effect size (BIGL, HSA null model), MV4-11 Cell Proliferation (Compound 51 0.001 μm + Midostaurin 0.006 μM): −0.01 | Effect size (BIGL, HSA null model), MV4-11 Cell Proliferation (Compound 51 0.001 μm + Midostaurin 0.025 μM): 0.05 | Effect size (BIGL, HSA null model), MV4-11 Cell Proliferation (Compound 51 0.001 μm + Midostaurin 0.05 μM): 0.07 | Effect size (BIGL, HSA null model), MV4-11 Cell Proliferation (Compound 51 0.001 μm + Midostaurin 0.1 μM): −0.03 | Effect size (BIGL, HSA null model), MV4-11 Cell Proliferation (Compound 51 0.001 μm + Midostaurin 0.5 μM): 0.03 | Effect size (BIGL, HSA null model), MV4-11 Cell Proliferation [1]: −0.1 | Synergy/antagonism call (maxR test), MV4-11 Cell Proliferation [1]: ** | Effect size (BIGL, HSA null model), MV4-11 Cell Proliferation [2]: −0.11 | Synergy/antagonism call (maxR test), MV4-11 Cell Proliferation [2]: ** | Effect size (BIGL, HSA null model), MV4-11 Cell Proliferation [3]: −0.23 | Synergy/antagonism call (maxR test), MV4-11 Cell Proliferation [3]: ** | Effect size (BIGL, HSA null model), MV4-11 Cell Proliferation (Compound 51 0.01 μm + Decitabine 1.5 μM): 0.01 | Effect size (BIGL, HSA null model), MV4-11 Cell Proliferation (Compound 51 0.01 μm + Decitabine 3 μM): −0.05 | Effect size (BIGL, HSA null model), MV4-11 Cell Proliferation [4]: −0.36 | Synergy/antagonism call (maxR test), MV4-11 Cell Proliferation [4]: ** | Effect size (BIGL, HSA null model), MV4-11 Cell Proliferation (Compound 51 0.01 μm + Gilteritinib 0.005 μM): −0.02 | Effect size (BIGL, HSA null model), MV4-11 Cell Proliferation (Compound 51 0.01 μm + Gilteritinib 0.01 μM): −0.02 | Effect size (BIGL, HSA null model), MV4-11 Cell Proliferation (Compound 51 0.01 μm + Gilteritinib 0.05 μM): −0.02 | Effect size (BIGL, HSA null model), MV4-11 Cell Proliferation (Compound 51 0.01 μm + Gilteritinib 0.3 μM): −0.02 | Effect size (BIGL, HSA null model), MV4-11 Cell Proliferation (Compound 51 0.01 μm + Gilteritinib 1 μM): −0.02 | Effect size (BIGL, HSA null model), MV4-11 Cell Proliferation (Compound 51 0.01 μm + Midostaurin 0.0012 μM): −0.06 | Effect size (BIGL, HSA null model), MV4-11 Cell Proliferation (Compound 51 0.01 μm + Midostaurin 0.006 μM): −0.13 | Effect size (BIGL, HSA null model), MV4-11 Cell Proliferation (Compound 51 0.01 μm + Midostaurin 0.025 μM): −0.14 | Effect size (BIGL, HSA null model), MV4-11 Cell Proliferation (Compound 51 0.01 μm + Midostaurin 0.05 μM): −0.11 | Effect size (BIGL, HSA null model), MV4-11 Cell Proliferation (Compound 51 0.01 μm + Midostaurin 0.1 μM): −0.04 | Effect size (BIGL, HSA null model), MV4-11 Cell Proliferation (Compound 51 0.01 μm + Midostaurin 0.5 μM): 0.03 | Effect size (BIGL, HSA null model), MV4-11 Cell Proliferation (Compound 51 0.05 μm + Decitabine 0.0015 μM): 0.02 | Effect size (BIGL, HSA null model), MV4-11 Cell Proliferation (Compound 51 0.05 μm + Decitabine 0.035 μM): −0.07 | Effect size (BIGL, HSA null model), MV4-11 Cell Proliferation [5]: −0.23 | Synergy/antagonism call (maxR test), MV4-11 Cell Proliferation [5]: ** | Effect size (BIGL, HSA null model), MV4-11 Cell Proliferation [6]: −0.11 | Synergy/antagonism call (maxR test), MV4-11 Cell Proliferation [6]: ** | Effect size (BIGL, HSA null model), MV4-11 Cell Proliferation (Compound 51 0.05 μm + Decitabine 3 μM): −0.06 | Effect size (BIGL, HSA null model), MV4-11 Cell Proliferation [7]: −0.18 | Synergy/antagonism call (maxR test), MV4-11 Cell Proliferation [7]: ** | Effect size (BIGL, HSA null model), MV4-11 Cell Proliferation (Compound 51 0.05 μm + Gilteritinib 0.005 μM): −0.03 | Effect size (BIGL, HSA null model), MV4-11 Cell Proliferation (Compound 51 0.05 μm + Gilteritinib 0.01 μM): −0.02 | Effect size (BIGL, HSA null model), MV4-11 Cell Proliferation (Compound 51 0.05 μm + Gilteritinib 0.05 μM): −0.02

From US20260191835A1, “COMBINATIONS COMPRISING A MENIN-MLL INHIBITOR AND AT LEAST ONE OTHER THERAPEUTIC AGENT” (JANSSEN PHARMACEUTICA NV, priority 2022, published 2026)
